# Data reported in patent US20240067693A1, “POLYPEPTIDES AND USES THEREOF” (MEDIMMUNE LIMITED, priority 2020, published 2024).
# Numbered stars: 1 amine (or outer) side, 2 acyl side, 3 side chain; on linkers, the order of the positions; unused ones are H or OH. Bridge positions count the residues as written; N and C are the ends. Square brackets hold non-standard residues; d marks the D form. Side chains are listed from the residue outwards. Peptide text beside a SMILES is read from it. * marks the point of attachment. C18 diacid = O=C(O)CCCCCCCCCCCCCCCCC(=O)*; γGlu = O=C(O)[C@H](CCC(=O)[*:2])N[*:1]; Aib = CC(C)(N)C(=O)O
# Legend:
# lean rats = assay: Rat acute food intake study; type: in vivo; details: lean male Sprague Dawley rats, 20 nmol/kg subcutaneously
# Procedure: Male Sprague Dawley rats were obtained from Taconic Denmark, ApS at approximately 7 weeks of age. Rats were implanted with a microchip for identification, housed 4/cage with enrichment, free access to food and water, and allowed one week acclimatisation while non-invasive characterization was performed. Rats were on a 12:12 light:dark cycle that switches at 1pm:1am. Food intake was monitored via the HM2 system (Lafayette Instrument) that allows for monitoring in a home cage. As each rat enters an access tunnel to feed, an IR beam is broken, and the implanted microchip is read. Resulting changes to food weight is then assigned to the specific animal. Social order has shown no impact to overall feeding patterns and amounts.
# Rats were sorted into groups based on Day -1 body weight and 24-hour accumulated food intake (n=7 per group). On Day 0 rats were weighed, then fasted for 6 hours. Thirty (30) minutes prior to the reintroduction of food, rats were dosed subcutaneously (5 mL/kg) with 20 nmol/kg of test compound or 60 nmol/kg peptide 1 (pramlintide) diluted in an appropriate vehicle, after which food was returned, and lights went out. Automated food intake was monitored for the following 3 days, and rats were weighed once per day.
# Food intake per rat was batched into 1-hour intervals and integrated into Gubra's GubraView data management system. Discrete food intake data was exported into MS Excel from which cumulative food intake data was generated. Cumulative food intake data was then transposed into GraphPad Prism (v8.0.1) for analysis of dark period feeding
# [1] = target: T1, rat calcitonin receptor (rat CTR) (Rattus norvegicus, UniProt P32214); assay: cAMP production in HEK cells with stable recombinant expression of rat calcitonin receptor (rat CTR); type: cell-based; details: assay buffer with 0.1% BSA
# T1 construct: expressed in transfected cells
# T1 sequence (P32214 25-516): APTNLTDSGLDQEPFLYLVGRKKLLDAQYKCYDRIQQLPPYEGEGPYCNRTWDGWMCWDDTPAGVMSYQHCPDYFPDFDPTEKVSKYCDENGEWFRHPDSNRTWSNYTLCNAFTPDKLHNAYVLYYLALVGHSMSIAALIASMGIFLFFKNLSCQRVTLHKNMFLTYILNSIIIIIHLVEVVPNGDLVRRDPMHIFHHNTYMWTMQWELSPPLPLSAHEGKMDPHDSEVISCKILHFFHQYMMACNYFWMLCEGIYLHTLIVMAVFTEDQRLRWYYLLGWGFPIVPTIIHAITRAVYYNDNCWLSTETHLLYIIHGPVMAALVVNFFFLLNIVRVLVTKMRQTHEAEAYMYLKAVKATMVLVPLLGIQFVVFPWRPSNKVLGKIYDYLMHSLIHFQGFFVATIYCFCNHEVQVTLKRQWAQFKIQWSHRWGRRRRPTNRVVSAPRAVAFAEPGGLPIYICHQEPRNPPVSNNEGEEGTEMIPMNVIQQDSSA
# Procedure: (§1) The functional activities of lipidated pramlintide analogue peptides, such as cAMP production, were tested in 1321N1 cell line with stable recombinant expression of human calcitonin receptor (hCTR) or human amylin receptor (calcitonin receptor co-expressed with receptor activity modifying protein, RAMP3) (hAMYR3) or HEK cells with stable recombinant expression of rat calcitonin receptor (rat CTR) or rat amylin receptor (calcitonin receptor co-expressed with receptor activity modifying protein, RAMP3) (Rat AMYR3).
# (§2) Cryopreserved cell stock was thawed rapidly in a water-bath, suspended in assay buffer (0.1% BSA (Sigma # A3059) in HBSS (Sigma # H8264) with 25 mM HEPES, pH 7.4 and containing 0.5 mM IB MX (Sigma# 17018)) and spun at 240×g for 5 minutes. Cells were re-suspended in assay buffer at a batch-dependent optimized concentration (e.g. hCTR cells at 0.125×10^5 cells/mL, hAMYR3 cells at 0.125×10^5 cells/mL, rat CTR cells at 1x10^5 cells/mL, rat AMYR3 at 2×10^5 cells/mL).
# (§3) The test peptide stock was prepared in DMSO and diluted in assay buffer to reach stated concentrations and transferred in duplicates into a 384-black shallow well microtitre assay plate (Corning # 3676). Cells were added to the assay plate, incubated at room temperature for 30 minutes and the cAMP level measured using cAMP dynamic 2 HTRF kit (Cisbio, Cat # 62AM4PEJ), following the two step protocol as per manufacturer's recommendations. The plates were read on an Envision (Perkin Elmer) using excitation wavelength of 320 nm and emission wavelengths of 620nm & 665 nm.
# (§4) Data was transformed to % Delta F as described in the manufacturer's guidelines and analyzed as percent activation of maximal amylin or calcitonin effect by 4-parameter logistic fit to determine EC50 values. The selectivity of a peptide to hAMYR vs hCTR is defined as a ratio of EC50 values at the two receptors.
# [2] = Pharmacokinetic determination via IV and SC administration in Sprague Dawley rats; details: male, rat, plasma, 20 nmol/kg
# [3] = target: T2, rat amylin receptor (calcitonin receptor co-expressed with receptor activity modifying protein, RAMP3) (Rat AMYR3) (Rattus norvegicus, UniProt P32214+Q9JJ73); assay: cAMP production in HEK cells with stable recombinant expression of rat amylin receptor (Rat AMYR3); type: cell-based; details: assay buffer with 0.1% BSA
# T2 construct: expressed in transfected cells
# T2 sequence (P32214 25-516): T1 sequence (P32214 25-516)
# T2 sequence (Q9JJ73 23-147 partner): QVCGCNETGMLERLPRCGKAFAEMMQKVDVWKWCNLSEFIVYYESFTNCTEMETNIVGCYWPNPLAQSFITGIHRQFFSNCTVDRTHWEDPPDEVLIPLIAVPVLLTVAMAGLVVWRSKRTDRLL
# Procedure: as §1, §2, §3, §4
# [4] = target: T3, human amylin receptor (calcitonin receptor co-expressed with receptor activity modifying protein, RAMP3) (hAMYR3) (Homo sapiens, UniProt O60896+P30988); assay: cAMP production in 1321N1 cells with stable recombinant expression of human amylin receptor (hAMYR3); type: cell-based; details: for Ratio (selectivity hAMYR vs hCTR, ratio of EC50 values at the two receptors): EC50 hCTR / EC50 hAMYR3; for EC50: cAMP, 1321N1 cells, assay buffer with 0.1% BSA, read-out: EC50 (pM) hAMYR3
# T3 construct: expressed in transfected cells
# T3 sequence (P30988 25-474): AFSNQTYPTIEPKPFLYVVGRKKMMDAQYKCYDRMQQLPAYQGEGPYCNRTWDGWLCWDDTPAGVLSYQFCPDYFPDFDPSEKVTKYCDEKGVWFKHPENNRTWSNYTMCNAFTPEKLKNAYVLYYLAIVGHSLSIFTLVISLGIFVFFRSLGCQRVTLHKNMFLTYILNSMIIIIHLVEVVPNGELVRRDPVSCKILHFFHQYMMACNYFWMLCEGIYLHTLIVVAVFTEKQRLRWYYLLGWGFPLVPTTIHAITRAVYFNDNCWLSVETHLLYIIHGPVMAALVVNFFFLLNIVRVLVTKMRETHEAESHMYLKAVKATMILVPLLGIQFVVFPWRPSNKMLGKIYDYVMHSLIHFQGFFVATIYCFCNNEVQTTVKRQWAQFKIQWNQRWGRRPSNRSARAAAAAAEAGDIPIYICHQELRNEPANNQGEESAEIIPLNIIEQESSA
# T3 sequence (O60896 24-148 partner): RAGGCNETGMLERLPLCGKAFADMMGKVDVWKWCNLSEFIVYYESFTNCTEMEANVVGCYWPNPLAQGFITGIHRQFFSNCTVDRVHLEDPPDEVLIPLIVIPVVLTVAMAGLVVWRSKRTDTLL
# How it was run: (§5)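 Receptor-expressing cells (human receptors in 1321N1, rat receptors in HEK) incubated 30 min at room temperature with peptide in HBSS/HEPES pH 7.4, 0.1% BSA, 0.5 mM IBMX. cAMP read by HTRF; EC50 from 4-parameter fit as % of maximal amylin or calcitonin response.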
# [5] = target: T4, human calcitonin receptor (hCTR) (Homo sapiens, UniProt P30988); assay: cAMP production in 1321N1 cells with stable recombinant expression of human calcitonin receptor (hCTR); type: cell-based; details: cAMP, 1321N1 cells, assay buffer with 0.1% BSA; read-out: EC50 (pM) hCTR
# T4 construct: expressed in transfected cells
# T4 sequence (P30988 25-474): T3 sequence (P30988 25-474)
# How it was run: as §5
EC50 [1] [pM],half-life ([2]; iv) [h],half-life ([2]; sc) [h],EC50 [3] [pM],"Ratio (selectivity hAMYR vs hCTR, ratio of EC50 values at the two receptors) [4]",EC50 [4] [pM],EC50 [5] [pM],Compound,Cummulative food intake (% vehicle treated intake) At 12 h (lean rats) [% vehicle treated intake],Cummulative food intake (% vehicle treated intake) At 24 h (lean rats) [% vehicle treated intake],Cummulative food intake (% vehicle treated intake) At 48 h (lean rats) [% vehicle treated intake]
3650,9.3,10,14.5,29,647,19000,"CC[C@H](C)[C@H](NC(=O)[C@@H]1CCCN1C(=O)CNC(=O)[C@H](Cc1ccccc1)NC(=O)[C@H](CC(N)=O)NC(=O)C(C)(C)NC(=O)[C@H](CO)NC(=O)[C@H](CO)NC(=O)[C@H](Cc1c[nH]cn1)NC(=O)[C@H](CCCNC(=N)N)NC(=O)[C@H](CC(C)C)NC(=O)[C@H](Cc1ccccc1)NC(=O)[C@H](CC(N)=O)NC(=O)[C@H](C)NC(=O)[C@H](CC(C)C)NC(=O)[C@H](CCCNC(=N)N)NC(=O)[C@H](CCC(N)=O)NC(=O)[C@@H](NC(=O)[C@H](C)NC(=O)[C@@H]1CSSC[C@H](NC(=O)[C@H](CCCCN)NC(=O)[C@@H](N)CCCCNC(=O)CC[C@H](NC(=O)CCCCCCCCCCCCCCCCC(=O)O)C(=O)O)C(=O)N[C@@H](CC(N)=O)C(=O)N[C@@H]([C@@H](C)O)C(=O)N[C@@H](C)C(=O)N[C@@H]([C@@H](C)O)C(=O)N1)[C@@H](C)O)C(=O)N[C@@H](CC(C)C)C(=O)N1CCC[C@H]1C(=O)N1CCC[C@H]1C(=O)N[C@H](C(=O)N[C@@H](CCC(=O)O)C(=O)N[C@H](C(=O)NCC(=O)N[C@@H](CO)C(=O)N[C@@H](CC(N)=O)C(=O)N[C@H](C(=O)N[C@@H](Cc1ccc(O)cc1)C(N)=O)[C@@H](C)O)C(C)C)[C@@H](C)O [Peptide 43, K(γE-C18diacid)K[CNTATC]ATQRLANFLRHSS(Aib)NFGPILPPTEVGSNTY-amide] (H-K([γGlu-C18 diacid])KCNTATCATQRLANFLRHSS[Aib]NFGPILPPTEVGSNTY-NH2; disulfide 3-8; N-terminus assumed)",60.8,55.6,46.6
20.3,6.6,9,5.1,6,190,1050,"CC[C@H](C)[C@H](NC(=O)[C@@H]1CCCN1C(=O)CNC(=O)[C@H](Cc1ccccc1)NC(=O)[C@H](CC(N)=O)NC(=O)C(C)(C)NC(=O)[C@H](CO)NC(=O)[C@H](CO)NC(=O)[C@H](Cc1c[nH]cn1)NC(=O)[C@@H](NC(=O)[C@H](CC(C)C)NC(=O)[C@H](Cc1ccccc1)NC(=O)[C@H](CCC(=O)O)NC(=O)[C@H](C)NC(=O)[C@H](CC(C)C)NC(=O)[C@H](CCCNC(=N)N)NC(=O)[C@H](CCC(N)=O)NC(=O)[C@@H](NC(=O)[C@H](C)NC(=O)[C@@H]1CSSC[C@H](NC(=O)[C@H](CCCCN)NC(=O)[C@@H](N)CCCCNC(=O)CC[C@H](NC(=O)CCCCCCCCCCCCCCCCC(=O)O)C(=O)O)C(=O)N[C@@H](CC(N)=O)C(=O)N[C@@H]([C@@H](C)O)C(=O)N[C@@H](C)C(=O)N[C@@H]([C@@H](C)O)C(=O)N1)[C@@H](C)O)C(C)C)C(=O)N[C@@H](CC(C)C)C(=O)N1CCC[C@H]1C(=O)N1CCC[C@H]1C(=O)N[C@H](C(=O)N[C@@H](CC(N)=O)C(=O)N[C@H](C(=O)NCC(=O)N[C@@H](CO)C(=O)N[C@@H](CC(N)=O)C(=O)N[C@H](C(=O)N[C@@H](Cc1ccc(O)cc1)C(N)=O)[C@@H](C)O)C(C)C)[C@@H](C)O [Peptide 38, K(γE-C18diacid)K[CNTATC]ATQRLAEFLVHSS(Aib)NFGPILPPTNVGSNTY-amide] (H-K([γGlu-C18 diacid])KCNTATCATQRLAEFLVHSS[Aib]NFGPILPPTNVGSNTY-NH2; disulfide 3-8; N-terminus assumed)",6.9,5.5,13.7
